{
  "source": "paper PMC8658963",
  "about": "“Synthesis and Evaluation of Trypanocidal Activity of Chromane-Type Compounds and Acetophenones” (Molecules, 2021)",
  "key": {"[1]": {"assay": "in vitro", "conditions": "human, Cytotoxicity (LC50)", "description": "(§1) Cytotoxicity was evaluated in the human monocyte cell line U-937 (ATCC CRL-1593.2) at the exponential growth phase, adjusted at 1 × 10^5 cells/mL in complete RPMI-1640 medium (RPMI-1640 enriched with 200 mM L-glutamine, 10% inactivated fetal bovine serum (FBS) and 1% of a mixture of 10,000 IU/mL penicillin plus […] streptomycin). Then, in each well of a 96-well tissue culture plate were dispensed […] of cells plus […] of each compound (as one of six serials 1:2 dilution concentrations starting at 368 µM prepared in the same medium). Doxorubicin was included as an internal positive control under the same dilution pattern, starting at 18 µM whereas unexposed cells were used as negative controls. Afterward, cells were incubated for 72 h at 37 °C and 5% CO2. Cell viability was assayed by the MTT reduction assay according to the optical density (O.D) at 570 nm of the resulting reduction of formazan in a Varioskan Flash Multimode Reader (Thermo Scientific, Waltham, MA, USA). Nonspecific absorbance was corrected by subtracting the O.D of the blank solution that corresponded to complete RPMI-1640 medium. The assay was done in triplicate in at least two independent experiments.\n(§2) The cytotoxicity was expressed as the medial lethal concentration (LC50), while the trypanocidal activity was defined as the median effective concentration (EC50) according to the percentage of inhibition of cells and parasites, respectively, as described elsewhere. Both LC50 and EC50 were calculated by the Probit analysis. […] Similarly, the trypanocidal activity was graded according to EC50 values, based on the hit criteria proposed by others into high when EC50 was lower than 10 μM, moderate when EC50 values were higher than 10 μM but lower than 50 μM and, low when EC50 was higher than 50 μM. The relation between cytotoxicity and trypanocidal activity was expressed as the index of selectivity (IS) that corresponded to the ratio when dividing the LC50 by the EC50."}, "[2]": {"tested_on": "human monocyte cell line U-937 (ATCC CRL-1593.2)", "assay": "Cytotoxic activity, MTT reduction assay, 72 h", "description": "as §1, §2"}, "[3]": {"tested_on": "intracellular amastigotes of T. cruzi (Tulahuen strain transfected with the β-galactosidase gene)", "assay": "Anti-trypanosomal activity, β-galactosidase readout in infected U937 macrophages, 72 h", "format": "cell-based, Trypanosoma cruzi", "conditions": "T. cruzi intracellular amastigotes; result in words", "description": "This activity was carried out in intracellular amastigotes of T. cruzi (Tulahuen strain transfected with the β-galactosidase gene. Briefly, metacyclic trypomastigotes were cultured at 26 °C for ten days in a modified NNN (Novy−McNeal−Nicolle) medium. U937 cells were seeded in 96-well tissue culture plates at a density of 2.5 × 10^4 cells in 100 μL of complete RPMI-1640 medium/well and exposed for 24 h to phorbol myristate acetate (1 ng/mL) to induce transformation of monocytes into macrophages. Cells were infected with trypomastigotes (5 parasites per cell) and incubated for 24 h at 37 °C, 5% CO2. Wells were washed twice with warm phosphate buffer solution (PBS) to remove noninternalized parasites, and then were added 100 μL of complete RPMI-1640 medium and 100 μL of each concentration of compound (50, 12.5, 3.125 μM). BNZ, at the same concentrations, was used as internal control for trypanocidal activity (positive control), and nontreated cells as controls for infection (negative control). After 72 h of incubation 37 °C, 5% CO2, the viability of intracellular amastigotes was determined by measuring the β-galactosidase activity. For this, 100 μM of Chlorophenol red-β-D- galactopyranoside (CPRG), and 0.1% Nonidet P-40 was added to each well and incubated for 4 h at 37 °C, […] protected from light. After that, measurement β-galactosidase activity was measured at 570 nm on a Varioskan, Thermo spectrophotometer. Nonspecific absorbance was subtracted from the measurement. Infected cells exposed to benznidazole were used as controls for anti-trypanosomal activity. Determinations were done in triplicate with at least two independent experiments."}},
  "data": [
    {"smiles": "CC(=O)c1cc(O)ccc1O", "note": "[Compound 6, 1-(2,5-Dihydroxyphenyl)ethan-1-one]", "values": [
      {"measurement": "CC50 at 72 h", "setting": "[1]", "value": "< 10", "unit": "µM"},
      {"measurement": "Cytotoxicity level (grade)", "setting": "[2]; U937 cells, graded by LC50", "value": "high (high when LC50 values were lower than 50 μM)"},
      {"measurement": "CC50", "setting": "[2]; human, 72 h", "value": 6.3, "unit": "µM"},
      {"measurement": "Trypanocidal activity compared with the control drug BNZ", "setting": "[3]", "value": "much better trypanocidal activity than the control drug BNZ"}
    ]}
  ]
}
